Data reported in patent US20250333388A1, “OXADIAZOLONE COMPOUNDS AND HERBICIDAL COMPOSITIONS AND USES THEREOF” (SHANDONG BINNONG TECHNOLOGY CO., LTD., priority 2023, published 2025).

What was measured:
Assay type in all cases: in vivo
crabgrass = assay: Test of herbicidal activity, post-seedling stem and leaf spray in greenhouse, crabgrass; settings: for herbicidal activity against crabgrass compared with Control compounds A, B and C: at different doses, summary of Table 5; for Crabgrass (%) control effect: post-seedling stem and leaf spray
Description: (§1) Seeds of broadleaf weeds (abutilon, Solanum nigrum) or gramineous weeds (crabgrass, barnyard grass) were sown into nutrient soil in plastic cups, respectively, and then covered with soil, compacted, watered, and further cultivated in a greenhouse by conventional methods. The stems and leaves of the weeds were sprayed when the weeds reached the 2- to 3-leaf stage. The test compounds of the present application were dissolved in acetone respectively, followed by addition of Tween 80. The solution was diluted with a certain amount of water to a certain solubility, and then sprayed onto the plants using a spray tower. The test was repeated three times. After drying naturally in the shade, the plants were put in a greenhouse and managed according to conventional methods. The growth and development of weeds were observed, and the control effect of the test agent on weeds was checked visually periodically, which was expressed by 0-100%, with “0” representing no control effect, and “100%” representing complete killing or severe inhibition.

Solanum nigrum = assay: Test of herbicidal activity, post-seedling stem and leaf spray in greenhouse, Solanum nigrum; settings: for herbicidal activity against Solamum nigrum compared with Control compounds A, B and C: at different doses, summary of Table 5; for Solanum nigrum (%) control effect: post-seedling stem and leaf spray
Description: as §1

abutilon = assay: Test of herbicidal activity, post-seedling stem and leaf spray in greenhouse, abutilon; settings: for herbicidal activity against abutilon compared with Control compounds A, B and C: at different doses, summary of Table 5; for Abutilon (%) control effect: post-seedling stem and leaf spray
Description: as §1

barnyard grass = assay: Test of herbicidal activity, post-seedling stem and leaf spray in greenhouse, barnyard grass; settings: for herbicidal activity against barnyard grass compared with Control compounds A, B and C: at different doses, summary of Table 5; for Barnyard grass (%) control effect: post-seedling stem and leaf spray
Description: as §1

corn = assay: Safety testing on corn, stem and leaf spray in greenhouse; settings: for inhibitory effect on corn (crop safety): at different doses, as compared to Control compounds A, B, and C, summary of Table 6; for Corn (%) safety (crop damage): stem and leaf spray
Description: (§2) The seeds of corn and rice were sown into nutrient soil in plastic cups, respectively, then covered with soil, compacted, watered, and further cultivated in a greenhouse by conventional methods. The stems and leaves of the crops were sprayed when the crops reached the 2- to 3-leaf stage. The test compounds of the present application were dissolved in acetone, followed by addition of Tween 80. The solution was then diluted with a certain amount of water to a certain solubility, and sprayed onto the plants using a spray tower. The test was repeated three times. After drying naturally in the shade, the plants were put in a greenhouse and managed according to conventional methods. The growth and development of corn and rice were observed, and the safety of the test agent on corn and rice was checked visually periodically. A safety grading standard was represented by 0-100%, with “O” representing no damage to crops, and “100%” representing complete killing or severe inhibition of crops.

rice = assay: Safety testing on rice, stem and leaf spray in greenhouse; settings: for inhibitory effect on rice (crop safety): at different doses, as compared to Control compounds A, B, and C, summary of Table 6; for Rice (%) safety (crop damage): stem and leaf spray
Description: as §2

[1] = dose 300 g a.i/ha, 0 = no control effect, 100% = complete killing or severe inhibition
[2] = dose 300 g a.i/ha, 0 = no damage to crops, 100% = complete killing or severe inhibition

SMILES	herbicidal activity against crabgrass compared with Control compounds A, B and C (crabgrass)	Crabgrass (%) control effect (crabgrass; dose 37.5 g a.i/ha) [%]	Crabgrass (%) control effect (crabgrass; dose 75 g a.i/ha) [%]	Crabgrass (%) control effect (crabgrass; dose 150 g a.i/ha) [%]	Crabgrass (%) control effect (crabgrass; dose 300 g a.i/ha) [%]	herbicidal activity against Solamum nigrum compared with Control compounds A, B and C (Solanum nigrum)	Solanum nigrum (%) control effect (Solanum nigrum; dose 37.5 g a.i/ha) [%]	Solanum nigrum (%) control effect (Solanum nigrum; dose 75 g a.i/ha) [%]	Solanum nigrum (%) control effect (Solanum nigrum; dose 150 g a.i/ha) [%]	Solanum nigrum (%) control effect (Solanum nigrum; dose 300 g a.i/ha) [%]	herbicidal activity against abutilon compared with Control compounds A, B and C (abutilon)	Abutilon (%) control effect (abutilon; dose 37.5 g a.i/ha) [%]	Abutilon (%) control effect (abutilon; dose 75 g a.i/ha) [%]	Abutilon (%) control effect (abutilon; dose 150 g a.i/ha) [%]	Abutilon (%) control effect (abutilon; [1]) [%]	herbicidal activity against barnyard grass compared with Control compounds A, B and C (barnyard grass)	Barnyard grass (%) control effect (barnyard grass; dose 37.5 g a.i/ha) [%]	Barnyard grass (%) control effect (barnyard grass; dose 75 g a.i/ha) [%]	Barnyard grass (%) control effect (barnyard grass; dose 150 g a.i/ha) [%]	Barnyard grass (%) control effect (barnyard grass; dose 300 g a.i/ha) [%]	further results
Cc1nn(Cc2c(S(C)(=O)=O)ccc(C(=O)C3C(=O)CCCC3=O)c2Cl)c(=O)o1 [Compound 1]	better herbicidal activities	50	75	85	95	better herbicidal activities	60	90	95	100	better herbicidal activities	65	90	98	100	better herbicidal activities	55	80	90	98	
CCS(=O)(=O)c1ccc(C(=O)C2C(=O)CCCC2=O)c(Cl)c1Cn1nc(C)oc1=O [Compound 6]																					inhibitory effect on corn (crop safety) (corn): no significant inhibitory effect; Corn (%) safety (crop damage) (corn; dose 37.5 g a.i/ha): 0%; Corn (%) safety (crop damage) (corn; dose 75 g a.i/ha): 0%; Corn (%) safety (crop damage) (corn; dose 150 g a.i/ha): 0%; Corn (%) safety (crop damage) (corn; [2]): 5%; inhibitory effect on rice (crop safety) (rice): no significant inhibitory effect; Rice (%) safety (crop damage) (rice; dose 37.5 g a.i/ha): 0%; Rice (%) safety (crop damage) (rice; dose 75 g a.i/ha): 0%; Rice (%) safety (crop damage) (rice; dose 150 g a.i/ha): 5%; Rice (%) safety (crop damage) (rice; dose 300 g a.i/ha): 10%
CCOC1=C(C(=O)c2ccc(S(C)(=O)=O)c(Cn3nc(C)oc3=O)c2Cl)C(=O)CCC1 [Compound 32]	better herbicidal activities	50	75	85	90	better herbicidal activities	60	90	95	100	better herbicidal activities	65	90	98	100	better herbicidal activities	55	80	90	95	
Cc1nn(Cc2c(S(C)(=O)=O)ccc(C(=O)c3c(C)nn(C)c3O)c2Cl)c(=O)o1 [Compound 58]																					inhibitory effect on corn (crop safety) (corn): no significant inhibitory effect; Corn (%) safety (crop damage) (corn; dose 37.5 g a.i/ha): 0%; Corn (%) safety (crop damage) (corn; dose 75 g a.i/ha): 0%; Corn (%) safety (crop damage) (corn; dose 150 g a.i/ha): 0%; Corn (%) safety (crop damage) (corn; [2]): 0%; inhibitory effect on rice (crop safety) (rice): no significant inhibitory effect; Rice (%) safety (crop damage) (rice; dose 37.5 g a.i/ha): 0%; Rice (%) safety (crop damage) (rice; dose 75 g a.i/ha): 0%; Rice (%) safety (crop damage) (rice; dose 150 g a.i/ha): 0%; Rice (%) safety (crop damage) (rice; dose 300 g a.i/ha): 5%
Cc1nn(Cc2c(S(C)(=O)=O)ccc(C(=O)c3c(C)nn(C)c3OC(=O)c3cn(C)nc3C(F)(F)F)c2Cl)c(=O)o1 [Compound 166]	better herbicidal activities	50	75	80	85	better herbicidal activities	60	85	90	93	better herbicidal activities	65	88	92	95	better herbicidal activities	55	80	85	90	
Cc1nn(Cc2c(S(C)(=O)=O)ccc(C(=O)c3c(C)nn(C)c3OC(=O)c3c(C(F)(F)F)nn(C)c3Cl)c2Cl)c(=O)o1 [Compound 204]	better herbicidal activities	45	64	80	88	better herbicidal activities	52	70	90	97	better herbicidal activities	55	80	90	98	better herbicidal activities	50	70	85	90	
Cc1nn(Cc2c(S(C)(=O)=O)ccc(C(=O)c3c(C)nn(C)c3OC(=O)c3cnn(C)c3Cl)c2Cl)c(=O)o1 [Compound 218]	better herbicidal activities	45	65	80	85	better herbicidal activities	50	70	90	95	better herbicidal activities	55	80	90	95	better herbicidal activities	50	70	85	90	
